Test results from article PMC3865603 (Cancer chemotherapy and pharmacology, 2011).

What was measured:
[1] = Plasma pharmacokinetics, non-compartmental; assay type: in vivo, human
[2] = Urinary excretion of KOS-1584 and metabolites; assay type: in vivo, human; details: MTD level, 0-24 h urine
[3] = test system: advanced or metastatic solid tumors; test: Anti-tumor activity; assay type: in vivo, human
plasma proteins = details: cited from earlier work
CYP3A4/5 = details: in vitro; cited from earlier work
[4] = KOS-1584 0.8 mg/m^2, 3 h infusion, cycle 1, N=1
[5] = KOS-1584 1.5 mg/m^2, 3 h infusion, cycle 1, N=4
[6] = KOS-1584 2.5 mg/m^2, 3 h infusion, cycle 1, N=4
[7] = KOS-1584 3.7 mg/m^2, 3 h infusion, cycle 1, N=3
[8] = KOS-1584 5.0 mg/m^2, 3 h infusion, cycle 1, N=4
[9] = KOS-1584 6.5 mg/m^2, 3 h infusion, cycle 1, N=6
[10] = KOS-1584 8.5 mg/m^2, 3 h infusion, cycle 1, N=3
[11] = KOS-1584 11.3 mg/m^2, 3 h infusion, cycle 1, N=4
[12] = KOS-1584 15.0 mg/m^2, 3 h infusion, cycle 1, N=4
[13] = KOS-1584 20.0 mg/m^2, 3 h infusion, cycle 1, N=5
[14] = KOS-1584 27 mg/m^2, 3 h infusion, cycle 1, N=4
[15] = KOS-1584 36 mg/m^2, 3 h infusion, cycle 1, N=16
[16] = KOS-1584 42 mg/m^2, 3 h infusion, cycle 1, N=6
[17] = KOS-1584 48 mg/m^2, 3 h infusion, cycle 1, N=2
[18] = all cohorts 0.8-48 mg/m^2, cycle 1

Q: What does the source list for `C/C1=C/C[C@@H](/C(C)=C/c2csc(C)n2)OC(=O)C[C@H](O)C(C)(C)C(=O)[C@H](C)[C@@H](O)[C@@H](C)/C=C/C1` [KOS-1584, (E)-9,10-didehydroepothilone D]?
A: linearity of pharmacokinetics ([1]; 0.8-48 mg/m^2): linear pharmacokinetics; KOS-1584 AUC [1, 4]: 26.7 ng·h/mL; KOS-1584 CL [1, 4]: 30.0 L/h/m^2; KOS-1584 Cmax [1, 4]: 5.73 ng/mL; KOS-1584 Tmax [1, 4]: 3.0 ng/mL; KOS-1584 Vλ [1, 4]: 541 L/m^2; KOS-1584 t1/2 [1, 4]: 12.5 h; KOS-1584 AUC [1, 5]: 64.9 ± 16.3 ng·h/mL; KOS-1584 CL [1, 5]: 24.6 ± 7.63 L/h/m^2; KOS-1584 Cmax [1, 5]: 9.29 ± 4.16 ng/mL; KOS-1584 Tmax [1, 5]: 2.0 ± 1.2 ng/mL; KOS-1584 Vλ [1, 5]: 553 ± 146 L/m^2; KOS-1584 t1/2 [1, 5]: 16.0 ± 3.96 h; KOS-1584 AUC [1, 6]: 170 ± 2.21 ng·h/mL; KOS-1584 CL [1, 6]: 14.9 ± 1.95 L/h/m^2; KOS-1584 Cmax [1, 6]: 18.0 ± 5.24 ng/mL; KOS-1584 Tmax [1, 6]: 3.0 ± 0.02 ng/mL; KOS-1584 Vλ [1, 6]: 385 ± 109 L/m^2; KOS-1584 t1/2 [1, 6]: 18.2 ± 6.37 h; KOS-1584 AUC [1, 7]: 359 ± 40.7 ng·h/mL; KOS-1584 CL [1, 7]: 10.4 ± 1.27 L/h/m^2; KOS-1584 Cmax [1, 7]: 32.9 ± 10.8 ng/mL; KOS-1584 Tmax [1, 7]: 3.0 ± 0.06 ng/mL; KOS-1584 Vλ [1, 7]: 279 ± 60.1 L/m^2; KOS-1584 t1/2 [1, 7]: 18.7 ± 3.64 h; KOS-1584 AUC [1, 8]: 468 ± 140 ng·h/mL; KOS-1584 CL [1, 8]: 11.3 ± 2.84 L/h/m^2; KOS-1584 Cmax [1, 8]: 41.9 ± 13.4 ng/mL; KOS-1584 Tmax [1, 8]: 2.61 ± 0.74 ng/mL; KOS-1584 Vλ [1, 8]: 269 ± 104 L/m^2; KOS-1584 t1/2 [1, 8]: 16.0 ± 2.53 h; KOS-1584 AUC [1, 9]: 566 ± 159 ng·h/mL; KOS-1584 CL [1, 9]: 12.4 ± 2.91 L/h/m^2; KOS-1584 Cmax [1, 9]: 41.9 ± 11.3 ng/mL; KOS-1584 Tmax [1, 9]: 2.49 ± 0.76 ng/mL; KOS-1584 Vλ [1, 9]: 348 ± 79.9 L/m^2; KOS-1584 t1/2 [1, 9]: 19.9 ± 4.68 h; KOS-1584 AUC [1, 10]: 620 ± 317 ng·h/mL; KOS-1584 CL [1, 10]: 15.9 ± 6.34 L/h/m^2; KOS-1584 Cmax [1, 10]: 78.4 ± 28.8 ng/mL; KOS-1584 Tmax [1, 10]: 2.96 ± 0.03 ng/mL; KOS-1584 Vλ [1, 10]: 327 ± 190 L/m^2; KOS-1584 t1/2 [1, 10]: 13.7 ± 4.57 h; KOS-1584 AUC [1, 11]: 2,206 ± 994 ng h/mL; KOS-1584 CL [1, 11]: 6.28 ± 3.56 L/h/m^2; KOS-1584 Cmax [1, 11]: 140 ± 41.9 ng/mL; KOS-1584 Tmax [1, 11]: 2.60 ± 0.68 ng/mL; KOS-1584 Vλ [1, 11]: 267 ± 197 L/m^2; KOS-1584 t1/2 [1, 11]: 28.5 ± 6.77 h; KOS-1584 AUC [1, 12]: 2,204 ± 946 ng h/mL; KOS-1584 CL [1, 12]: 7.69 ± 2.89 L/h/m^2; KOS-1584 Cmax [1, 12]: 220 ± 84.7 ng/mL; KOS-1584 Tmax [1, 12]: 2.97 ± 0.03 ng/mL; KOS-1584 Vλ [1, 12]: 263 ± 113 L/m^2; KOS-1584 t1/2 [1, 12]: 23.5 ± 1.77 h; KOS-1584 AUC [1, 13]: 2,440 ± 945 ng h/mL; KOS-1584 CL [1, 13]: 9.28 ± 3.56 L/h/m^2; KOS-1584 Cmax [1, 13]: 284 ± 153 ng/mL; KOS-1584 Tmax [1, 13]: 2.38 ± 0.80 ng/mL; KOS-1584 Vλ [1, 13]: 288 ± 165 L/m^2; KOS-1584 t1/2 [1, 13]: 20.2 ± 8.15 h; KOS-1584 AUC [1, 14]: 3,190 ± 1,490 ng h/mL; KOS-1584 CL [1, 14]: 10.1 ± 5.00 L/h/m^2; KOS-1584 Cmax [1, 14]: 259 ± 110 ng/mL; KOS-1584 Tmax [1, 14]: 3.10 ± 0.27 ng/mL; KOS-1584 Vλ [1, 14]: 434 ± 339 L/m^2; KOS-1584 t1/2 [1, 14]: 27.8 ± 9.08 h; KOS-1584 AUC [1, 15]: 5,267 ± 3,190 ng h/mL; KOS-1584 CL [1, 15]: 8.98 ± 4.59 L/h/m^2; KOS-1584 Cmax [1, 15]: 701 ± 425 ng/mL; KOS-1584 Tmax [1, 15]: 2.67 ± 0.58 ng/mL; KOS-1584 Vλ [1, 15]: 329 ± 134 L/m^2; KOS-1584 t1/2 [1, 15]: 27.9 ± 10.6 h; KOS-1584 AUC [1, 16]: 7,355 ± 4,718 ng h/mL; KOS-1584 CL [1, 16]: 8.52 ± 5.43 L/h/m^2; KOS-1584 Cmax [1, 16]: 1,066 ± 513 ng/mL; KOS-1584 Tmax [1, 16]: 2.95 ± 0.04 ng/mL; KOS-1584 Vλ [1, 16]: 277 ± 165 L/m^2; KOS-1584 t1/2 [1, 16]: 24.1 ± 9.37 h; KOS-1584 AUC [1, 17]: 4,727 ± 167 ng h/mL; KOS-1584 CL [1, 17]: 10.1 ± 0.27 L/h/m^2; KOS-1584 Cmax [1, 17]: 769 ± 42.4 ng/mL; KOS-1584 Tmax [1, 17]: 2.92 ± 0.0 ng/mL; KOS-1584 Vλ [1, 17]: 349 ± 205 L/m^2; KOS-1584 t1/2 [1, 17]: 24.1 ± 14.7 h; mean overall clearance [1, 18]: 11 ± 6.17 L/h/m^2; mean overall half-life of KOS-1584 [1, 18]: 21.9 ± 8.75 h; mean overall volume of distribution [1, 18]: 327 ± 161 L/m^2; accumulation ([1]; every 3 weeks dosing, cycles 1 and 2): no accumulation; Urinary excretion of unchanged KOS-1584 [2]: < 10 % of drug-related materials; patients with durable SD of ≥3 months ([3]; 66 patients): 13 patients; patients with objective partial response (PR) ([3]; 66 patients, 0.8-48 mg/m^2): Two; disease control rate (CR + PR + SD) ([3]; all patients): 39%; bound to plasma proteins (plasma proteins): 97%; inhibition of CYP3A4/5 (CYP3A4/5): potent inhibitor
